{"source": "patent US20240122857A1", "about": "“PHARMACEUTICAL FORMULATIONS OF INDOLEAMINE 2, 3-DIOXYGENASE INHIBITORS” (BRISTOL-MYERS SQUIBB COMPANY, priority 2019, published 2024)", "assay": "Excipient compatibility study", "type": "physicochemical", "note": "Structures can show the parent of a compound that is named as a salt.", "data": [{"smiles": "C[C@@H](C(=O)Nc1ccc(Cl)cc1)[C@H]1CC[C@@H](c2ccnc3ccc(F)cc32)CC1", "note": "[Compound I-MSA, (R)—N-(4-chlorophenyl)-2-((1S, 4S)-4-(6-fluoroquinolin-4-yl)cyclohexyl) propanamide methane sulfonic acid salt]", "values": [{"measurement": "chemical stability with commonly used pharmaceutical excipients", "value": "acceptable chemical stability"}]}]}
